Legend:
[1] = cited from earlier work
[2] = system: SPR (Spiky Rotating Cells); assay: Treatment of patients with SPR infection; assay type: in vivo, human; settings: oral treatment of patients
Text: My discovery of the novel SPR organism also provides for the treatment of SPR infections in male and female patients. The method involves first diagnosing the SPR infection, and then, upon obtaining a positive diagnosis, administering to the patient an SPR-inhibiting amount of an anti-SPR agent selected from the group consisting of itraconazole, ofloxacin, metronidazole.
One such drug is itraconazole, sold under the trade name SPORANOX®, available from Jansen Pharmaceuticals. The patient ingests one 200 mg tablet per day for three-four weeks.
The patient takes 500 mg twice per day for six weeks.
Yet another drug that is effective in treating SPR infection is ofloxacin, sold under the trade name FLOXIN®. The patient takes 400 mg twice per day for two weeks.

[3] = system: Chlamydia; settings: single dose (Martin); cited from earlier work
[4] = system: Ureaplasma; settings: Stamm and colleagues; cited from earlier work

Structure (SMILES)	clinical efficacy in refractory cases ([1]; refractory cases, smaller series (Toth))	effectiveness in treating infection with SPR [2]	efficacy in uncomplicated chlamydial urethritis compared with Doxycycline [3]	Ureaplasma cases that responded [4] [%]	cases of NGU cured ([1]; Stamm and colleagues) [%]	overall effectiveness in NGU compared with Doxycycline ([1]; Stamm and colleagues)
Cc1ncc([N+](=O)[O-])n1CCO [metronidazole]	good clinical efficacy	can be used to treat SPR infection	–	–	–	–
CC[C@H]1OC(=O)[C@H](C)[C@@H](O[C@H]2C[C@@](C)(OC)[C@@H](O)[C@H](C)O2)[C@H](C)[C@@H](O[C@@H]2O[C@H](C)C[C@H](N(C)C)[C@H]2O)[C@](C)(O)C[C@@H](C)CN(C)[C@H](C)[C@@H](O)[C@]1(C)O [Azithromycin]	–	–	comparable to Doxycycline	47	78	overall as effective as Doxycyline

— patent publication US6955908B1, “Organism associated with nongonococcal urethritis” (priority 2000, dated 2005)
